In patent US9078429B2, “Method of cryopreserving stem cells” (The Governors of the University of Alberta, priority 2004, dated 2015):

Tested on: TF-1 cells
Test: Post-thaw recovery of TF-1 cells by membrane integrity assay (SYTO 13/ethidium bromide) after cryopreservation
Format: cell-based, human
Conditions: TF-1 cells in 10% DMSO/RPMI, conventional cooling at a constant rate of 0.9° C./min, then liquid nitrogen, thawed
Description: FIG. 12. Membrane integrity of TF-1 cells in 10% DMSO cooled at 1° C./min to various subzero temperatures and then either thawed directly (upper curve) or cooled rapidly at 325° C./min in liquid nitrogen (lower curve) before being thawed.
TF-1 cells (ATCC, Manassas, Va.) were grown at 37° C. in 5% CO2 in RPMI 1640 Medium Modified (ATCC) with 10% fetal bovine serum (FBS) (ATCC), and supplemented with 2 ng/mL recombinant human GM-CSF (Stemcell Technologies, Vancouver, Canada). Cells were maintained between 0.1×10^6 and 1×10^6 cells/mL, according to ATCC guidelines. Prior to experiments, cells were washed twice with serum-free RPMI media and incubated overnight. […]
Cell viability was assessed by a membrane integrity assay. […]
The Syto/EB stain was prepared using 40 μL of 2.5 mM EB stock solution and 10 μL of 5 mM Syto® 13 stock solution mixed with 350 μL 1× phosphate-buffered saline (PBS). […] Fluorescent images were captured using a Leitz Dialux 22 fluorescence (440-480 nm) microscope (Leitz, Germany) fitted with a PIXERA DiRactor (Pixera Corporation, Los Gatos, Calif., USA) digital camera. The Viability Assessment Program (The Great Canadian Computer Company, Spruce Grove, Canada), which counts red versus green pixels was used to quantify cell membrane integrity from digital images (Jomha, 2003). […]

C[S+](C)[O-] [DMSO, dimethyl sulfoxide]
recovery (membrane integrity) after thawing: 63.7%
